Values of other authors in patent EP0497915B1, “hPTH (1-37) FRAGMENT, ITS PRODUCTION, DRUG CONTAINING IT AND ITS USE” (HaemoPep Pharma GmbH, priority 1989, dated 1991).

B1: hPTH-(1-84): sezerniertes PTH-Molekül aus 84 Aminosäuren (peptide, UniProt P01270 32-115, looked up)
Parathyroid hormone: SVSEIQLMHNLGKHLNSMERVEWLRKKLQDVHNFVALGAPLAPRDAGSQRPRKKEDNVLVESHEKSLGEADKADVNVLTKAKSQ
modifications: Parathyroid hormone
notes: sezerniertes PTH-Molekül aus 84 Aminosäuren

Legend:
hPTH-(53-84)-RIA = settings: commercial RIA (Immundiagnostik), manufacturer's data
hPTH-(44-68)-RIA = settings: commercial RIA (Immundiagnostik), manufacturer's data

Row | Molecule | Kreuzreaktion im hPTH-(53-84)-RIA (hPTH-(53-84)-RIA) | Kreuzreaktion im hPTH-(44-68)-RIA (hPTH-(44-68)-RIA)
1 | hPTH-(1-34): bekanntes synthetisches N-terminales hPTH-Fragment (SVSEIQLMHNLGKHLNSMERVEWLRKKLQDVHNF; Parathyroid hormone; UniProt P01270 32-65, looked up, fragment) | keine Kreuzreaktion | keine Kreuzreaktion
2 | hPTH-(28-48): synthetisches hPTH-Peptid (LQDVHNFVALGAPLAPRDAGS; Parathyroid hormone; UniProt P01270 59-79, looked up, fragment) | keine Kreuzreaktion | keine Kreuzreaktion
3 | hPTH-(44-68): synthetisches hPTH-Peptid, Standard des mittelregionalen RIA (RDAGSQRPRKKEDNVLVESHEKSLG; Parathyroid hormone; UniProt P01270 75-99, looked up, fragment) | keine Kreuzreaktion | 
4 | hPTH-(53-84): synthetisches hPTH-Peptid, Standard des C-terminalen RIA (KKEDNVLVESHEKSLGEADKADVNVLTKAKSQ; Parathyroid hormone; UniProt P01270 84-115, looked up, fragment) |  | 100%
5 | hPTH-(64-84): synthetisches hPTH-Peptid (EKSLGEADKADVNVLTKAKSQ; Parathyroid hormone; UniProt P01270 95-115, looked up, fragment) | 100% | keine Kreuzreaktion
6 | B1 | 100% | 100%
